The text below walks through data of patent US7067524B2, “Substituted phenyl naphthalenes as estrogenic agents” (Wyeth, priority 2001, dated 2006).

For experiment [1], the system named is metallothionein-II mRNA in Saos-2 cells. The experiment can be described thus: Regulation of metallothionein-II mRNA in Saos-2 cells. It is filed as cell-based. The conditions noted are these: column head not given. Also on record: unit not given here.
Experiment [2] has as its system Progesterone receptor mRNA. As to the kind of experiment: Progesterone receptor mRNA regulation in the preoptic area of the rat brain. It is filed as in vivo. The following applies: 30 μg/kg.
The next experiment deals with casein kinase II mRNA. As to the kind of experiment: Rat mammotrophic assay (mammary end bud test procedure). It is filed as in vivo. The conditions noted are these: ovariectomized rats, 0.1 mg/kg sc 6 days, with progesterone 30 mg/kg.
The test system of experiment [3] is Sexually immature 129 SvE mice. The experiment can be described thus: Mouse uterotrophic test procedure (Procedure 2). It is filed as in vivo. The conditions noted are these: 50 mg/kg/day sc, days 22-25.

The structures appear in SMILES notation.

Consider `Oc1ccc2cc(-c3ccc(O)c(Cl)c3)ccc2c1` [Example 1l, 6-(3-Chloro-4-hydroxyphenol)-2-naphthol], for which the “Regulation of metallothionein-II mRNA” value in experiment [1] came out at 5.5. The same measure, in the same setting: the same measure for `Oc1ccc(-c2ccc3cc(O)ccc3c2)cc1` [Example 1e, 6-(4-Hydroxyphenyl)-2-naphthol]: 17.0. Take `Oc1ccc(-c2ccc3c(Br)c(O)ccc3c2)cc1` [Example 1o, 1-Bromo-6-(4-hydroxyphenyl)-2-naphthol]: the “Regulation of metallothionein-II mRNA” value in experiment [1] amounted to 5.7.

In the case of `Oc1ccc(-c2ccc3c(Cl)c(O)ccc3c2)cc1` [Example 1p, 1-Chloro-6-(4-hydroxyphenyl)-2-naphthol], the “Regulation of metallothionein-II mRNA” value in experiment [1] was found to be 6.0. For `C[C@]12CC[C@@H]3c4ccc(O)cc4CC[C@H]3[C@@H]1CC[C@@H]2O` [17β-estradiol, reference compound], the “Progesterone receptor mRNA (arbitrary units; mean ± stdev)” value in experiment [2] worked out at 557.1 ± 80.6 arbitrary units. Moreover, the “Casein kinase II mRNA/18S rRNA (mean ± SEM)” value in the experiment with casein kinase II mRNA is recorded as 39.0 ± 5.4. Moreover, in experiment [3], the “mean uterine weight (mg) ± SEM” value was determined as 45.3 ± 1.9 mg. On to `N#Cc1c(O)ccc2cc(-c3ccc(O)cc3)ccc12` [Example 1s, 2-Hydroxy-6-(4-hydroxyphenyl)-1-naphthonitrile], for which the “Regulation of metallothionein-II mRNA” value in experiment [1] was found to be 4.9.
